According to patent US20110045101A1, “FUNGICIDAL SUBSTITUTED AZOLES” (E.I. Du Pont De Nemours and Company, priority 2009, published 2011):
Marks after values point to notes of the source that are not given here.

Columns and labels:
Format in all cases: in vivo
Settings in all cases: 100 = 100% disease control
[1] = test system: Alternaria solani; test: Test D: tomato early blight, sprayed the day before inoculation, visual disease rating
In short: (§1)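 Ratings reflect a 200 ppm spray (≈500 g/ha) unless marked as 40 ppm. Plants were sprayed to run-off. The spray suspension was acetone/purified water 50/50 containing 250 ppm Trem 014, after first dissolving compound in acetone at 3% of final volume.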

[2] = test system: Puccinia recondita f. sp. tritici; test: Test I: wheat leaf rust on wheat seedlings, sprayed the day before inoculation, visual disease rating
In short: as §1

[3] = test system: Puccinia recondita f. sp. tritici; test: Test H: wheat leaf rust, test suspension sprayed after inoculation of wheat seedlings, visual disease rating
In short: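 Wheat seedlings inoculated with P. recondita spores, held 24 h saturated at 20 °C, then 2 days in growth chamber at 20 °C; compound suspension (acetone/water with Trem 014) sprayed to run-off afterwards. Rated visually; 200 ppm (≈500 g/ha) unless marked *, which denotes 40 ppm.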

[4] = test system: Septoria nodorum; test: Test F: wheat glume blotch on wheat seedlings, sprayed the day before inoculation, visual disease rating
In short: as §1

[5] = test system: Botrytis cinerea; test: Test C: tomato Botrytis on tomato seedlings, sprayed the day before inoculation, visual disease rating
In short: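 Disease scored by eye on tomato seedlings inoculated with Botrytis cinerea a day after treatment. Treatment was a run-off spray at 200 ppm (equivalent to 500 g/ha), or 40 ppm where marked, in acetone/water carrying 250 ppm Trem 014.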

[6] = test system: Erysiphe graminis f. sp. tritici; test: Test J: wheat powdery mildew on wheat seedlings, sprayed the day before inoculation, visual disease rating
In short: as §1

[7] = test system: Septoria tritici; test: Test G: wheat leaf blotch on wheat seedlings, sprayed the day before inoculation, visual disease rating
In short: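 Spray to run-off, 200 ppm (≈500 g/ha; starred = 40 ppm), acetone/water 50/50 + 250 ppm Trem® 014. Spore inoculation +1 d. 24° C saturated 48 h → 20° C 19 d. Visual rating.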

[8] = 200 ppm, 0 = no control relative to controls

Row | Structure (SMILES) | Test D disease control rating [1, 8] | Test I disease control rating [2, 8] | Test H disease control rating [3, 8] | Test F disease control rating [4, 8] | Test C disease control rating [5, 8] | Test J disease control rating [6, 8] | Test G disease control rating [7, 8] | Test D disease control rating ([1]; 40 ppm (marked *)) | Test I disease control rating ([2]; 40 ppm (marked *)) | Test H disease control rating ([3]; 40 ppm (marked *)) | Test F disease control rating ([4]; 40 ppm (marked *)) | Test C disease control rating ([5]; 40 ppm (marked *)) | Test J disease control rating ([6]; 40 ppm (marked *)) | Test G disease control rating ([7]; 40 ppm (marked *))
1 | Fc1cc(-n2c(Cl)nc(Cl)c2-c2cncc(Br)c2)ccc1Cl [compound 486] | 0% | 14% | 0% | 0% | 66% | 0% | 0% | – | – | – | – | – | – | –
2 | Fc1cc(-n2c(Cl)nc(Cl)c2-c2ccc(Br)cn2)ccc1Cl [compound 487] | 0% | 78% | 0% | 0% | 96% | 0% | 88% | – | – | – | – | – | – | –
3 | COc1cc(F)c(-c2c(Cl)nc(Cl)n2-c2ccc(C(F)(F)F)nc2)c(F)c1 [compound 488] | 100% | 100% | 41% | 100% | 99% | 100% | 93% | – | – | – | – | – | – | –
4 | Cc1nc(C)n(-c2ccc(Cl)c(F)c2)c1-c1c(F)ccc(F)c1Cl [compound 489] | – | – | – | – | – | – | – | 98* % | 100* % | 0* % | 0* % | 96* % | 100* % | 93* %
5 | Cc1ccc(-n2c(C)nc(C)c2-c2c(F)ccc(F)c2F)cc1 [compound 490] | – | – | – | – | – | – | – | 99* % | 76* % | 0* % | 0* % | 97* % | 100* % | 87* %
6 | Cc1nc(C)n(-c2ccc(F)cc2)c1-c1c(F)cc(F)cc1F [compound 491] | – | – | – | – | – | – | – | 99* % | 0* % | 0* % | 0* % | 92* % | 0* % | 91* %
7 | Cc1nc(Cl)n(-c2ccc(F)cc2)c1-c1c(F)cc(F)cc1F [compound 492] | – | – | – | – | – | – | – | 100* % | 0* % | 0* % | 0* % | 94* % | 0* % | 82* %
8 | Cc1ccc(-n2c(C)nc(C)c2-c2c(F)ccc(F)c2Cl)cc1 [compound 493] | – | – | – | – | – | – | – | 99* % | 97* % | 0* % | 0* % | 96* % | 99* % | 93* %
9 | Cc1nc(Cl)n(-c2ccc(Cl)c(F)c2)c1-c1c(F)ccc(F)c1Cl [compound 494] | – | – | – | – | – | – | – | 99* % | 99* % | 0* % | 0* % | 89* % | 99* % | 89* %
10 | Cc1ccc(-n2c(Cl)nc(C)c2-c2c(F)ccc(F)c2Cl)cc1 [compound 495] | – | – | – | – | – | – | – | 99* % | 99* % | 0* % | 0* % | 97* % | 100* % | 31* %
11 | Cc1ccc(-n2c(Cl)nc(C)c2-c2c(F)ccc(F)c2F)cc1 [compound 496] | – | – | – | – | – | – | – | 99* % | 0* % | 0* % | 0* % | 93* % | 97* % | 6* %
12 | COc1cc(F)c(-c2c(Cl)ncn2-c2cccc(Cl)c2)c(F)c1 [compound 497] | 99% | 100% | 0% | 100% | 97% | 100% | 97% | – | – | – | – | – | – | –
13 | COc1cc(F)c(-c2c(Cl)ncn2-c2ccc(F)c(F)c2)c(F)c1 [compound 498] | 100% | 100% | 0% | 95% | 99% | 100% | 95% | – | – | – | – | – | – | –
14 | COc1cc(F)c(-c2c(Cl)nc(C)n2-c2ccc(F)c(F)c2)c(F)c1 [compound 499] | 100% | 100% | 100% | 100% | 99% | 100% | 93% | – | – | – | – | – | – | –
15 | COc1cc(F)c(-c2c(Cl)nc(C)n2-c2cccc(Cl)c2)c(F)c1 [compound 500] | 100% | 100% | 98% | 100% | 98% | 100% | 94% | – | – | – | – | – | – | –
16 | COc1ccc(F)c(-c2c(Cl)nc(Br)n2-c2ccc(Cl)cc2)c1Cl [compound 501] | 99% | 67% | 0% | 98% | 98% | 99% | 95% | – | – | – | – | – | – | –
17 | COc1cc(F)c(-c2c(Cl)nc(Cl)n2-c2ccc(C)c(Cl)c2)c(F)c1 [compound 502] | – | – | – | – | – | – | – | 92* % | 98* % | 0* % | 60* % | 90* % | 100* % | 93* %
18 | Cc1nc(Cl)n(-c2ccc(F)cc2Cl)c1-c1ccc(Cl)cc1 [compound 503] | 99% | 100% | 0% | 99% | 99% | 100% | 96% | – | – | – | – | – | – | –
19 | COc1cc(F)c(-c2c(Br)ncn2-c2ccc(F)cc2)c(F)c1 [compound 506] | 100% | 100% | 78% | 92% | 100% | 99% | 99% | – | – | – | – | – | – | –
20 | Fc1ccc(-n2cnc(Br)c2-c2c(F)cc(F)cc2F)cc1 [compound 507] | 95% | 100% | 0% | 0% | 100% | 98% | 88% | – | – | – | – | – | – | –
